# Assay results: patent publication US11998610B2, “Conjugates and methods of using the same” (Flagship Pioneering Innovations V, Inc., priority 2018, dated 2024)
# Non-standard residues stand in square brackets, D forms with d. Residues, ends and D or L forms follow the SMILES beside them. *: point of attachment. Myristoyl = CCCCCCCCCCCCCC(=O)*; PhAc = O=C(Cc1ccccc1)*; Butyryl = CCCC(=O)*
# Experiments:
# [1] = Stability of conjugates in Simulated Intestinal Fluid (SIF); assay type: in vitro ADME; details: simulated intestinal fluid pH 6.7 with pancreatin, 1 μM, 37° C.
# Procedure: Assay 2. Stability of conjugates in Simulated Intestinal Fluid (SIF). This assay was used to assess the stability of a conjugate in a small intestine. Phosphate buffer was prepared by dissolving 0.42 g of sodium hydroxide pellets and 3.95 g of monobasic sodium phosphate monohydrate and 6.19 g of sodium chloride in ultrapure water (MilliQ®, Millipore Sigma, Darmstadt, Germany). The pH was adjusted to 6.7 using aq. HCl and aq. NaOH, as necessary, and the solution was diluted with ultrapure water to produce 1 L of the pH 6.7 buffer. 112 mg FaSSIF powder (Biorelevant™, London, UK) was dissolved in 50 mL of the pH 6.7 buffer. 2 to 3 mL of the resulting solution were then added to 500 mg pancreatin (Millipore Sigma, Darmstadt, Germany). The resulting mixture was agitated by finger tapping the vessel containing the mixture until milky suspension formed. At this time, the remainder of the 50 mL FaSSiF/pH 6.7 buffer solution was added. The resulting suspension was flipped upside down 10 times to produce SIF, which was used fresh. Test compounds were dissolved in DMSO stock to 1 mM. An aliquot of the DMSO stock solution was removed and diluted in the SIF media in 15 mL falcon tubes to produce a mixture with a tested compound concentration of 1 μM. A 1 mL aliquot was immediately removed and diluted once with 1 volume of acetonitrile for T0 timepoint. The mixture was sealed and agitated at 37° C. in an incubator. Aliquots (1 mL) were removed at regular intervals and immediately quenched by the addition of 1 volume of acetonitrile. The resulting samples were analyzed by LC/MS to determine degradation rates
# [2] = tested on: E. coli BL21(DE3); assay: Cell-based assay with ClbP with LCMS, ClbP negative strain; details: 10 μM compound, 37° C., 20 h
# Procedure: (§1) This example is representative of the methods described in Example 97. ClbP was tested for its ability to activate compounds. […] Each of these three strains was struck out onto an appropriate solid media such as LB agar or BHI agar. The bacteria were then grown aerobically overnight at 37° C.
# (§2) A single colony was isolated from the plate and inoculated into 10 mL LB. The liquid cultures were grown overnight aerobically at 37° C. with rocking on a nutator.
# (§3) The saturated E. coli cultures were transferred into a biosafety cabinet. 5 μL of each culture was inoculated into fresh LB broth (200 μL total, 1:40 (v/v) dilution of the overnight culture), and the tested compound was added to a final concentration of 10 μM. To establish the native stability of the compound in media alone, the compound was also added to uninoculated media at a final concentration of 10 μM. Each compound was tested in duplicate with each strain or the media-alone incubation. The plate was sealed and incubated aerobically on a nutator at 37° C. for 20 h.
# (§4) After 20 h, the reactions were stopped by addition of 200 μL acetonitrile. The contents of each well were mixed, and then the plate was centrifuged (4,000 rpm, 10 min). The plate was diluted serially to a final dilution of 1:100 first with Acetonitrile (10× dilution) and then with (4:1) Mobile Phase A-20 mM ammonium formate+water:Mobile Phase B-Isopropanol:Methanol:Water (4:4:2)+20 mM ammonium formate (10× dilution).
# (§5) The amount of each remaining parent compound in each incubation was quantified by LC-MS analysis, with multiple-reaction monitoring targeting transitions specific to each parent compound.
# (§6) The amount of compound present in the media-alone condition was normalized to 100%. The amount of parent compound present in the reaction with the ClbP-encoding E. coli (E. coli CFT073 ATCC 700928 and/or E. coli Nissle 1917) was compared to the amount present in the media-alone and expressed as a percent. Likewise, the amount of parent compound present in the reaction with the negative control E. coli BL21(DE3) was compared to the amount present in the media-alone and expressed as a percent.
# (§7) In an ideal case, the amount of residual starting material in the reaction(s) with ClbP-encoding E. coli was <25% of the amount in the E. coli BL21(DE3) and media-alone conditions. In an acceptable case, the amount of residual starting material in the reaction(s) with ClbP-encoding E. coli was 25-75% of the amount in the E. coli BL21(DE3) and media-alone conditions. In a non-preferred case, the amount of residual starting material in the reaction(s) with ClbP-encoding E. coli was >75% of the amount in the E. coli BL21(DE3) and media-alone conditions.
# [3] = In vitro Colonic Material Stability Assay; assay type: in vitro ADME; details: for Assay 3 (% Remaining at 24 h): colonic material slurry, anaerobic, 1 or 10 μM; for Selective delivery to the colon (conclusion from Table 2): from SGF, SIF and colonic material stability
# Procedure: Assay 3 In vitro Colonic Material Stability Assay. This assay was used to assess the stability of an acylated active agent in a large intestine. All experiments were performed in an anaerobic chamber containing 90% nitrogen, 5% hydrogen and 5% carbon dioxide. Colonic material was resuspended as a slurry (15% w/v final concentration) in pre-reduced, anaerobically sterilized dilution blanks (Anaerobe Systems AS-908). The colonic material was then inoculated into 96 well plates containing YCFAC media (Anaerobe Systems AS-680) or other suitable media (6.7 μL slurry into 1 mL total media). Compounds or groups of compounds were added to each individual well to reach a final analyte concentration of 1 or 10 μM, and the material was mixed by pipetting. Sample was removed after set timepoints (0, 120, 240, 480, 1440, 2880 minutes after initiation of the assay), quenched with acetonitrile containing internal standard, and analyzed by LC/MS.
# [4] = Stability of conjugates in Simulated Gastric Fluid (SGF); assay type: in vitro ADME; details: simulated gastric fluid pH 1.6 with pepsin, 1 μM, 37° C.
# Procedure: Assay 1. Stability of conjugates in Simulated Gastric Fluid (SGF). This assay was used to assess the stability of a conjugate in a stomach. Medium was prepared by dissolving 2 g of sodium chloride in 0.6 L in ultrapure water (MilliQ®, Millipore Sigma, Darmstadt, Germany). The pH was adjusted to 1.6 with 1N hydrochloric acid, and the volume was then adjusted to 1 L with purified water. 60 mg FaSSIF powder (Biorelevant™, London, UK) were dissolved in 500 mL buffer (above). Pepsin was added (0.1 mg/mL) (Millipore Sigma, Darmstadt, Germany), and the solution was stirred. The resulting SGF media were used fresh for each experiment. Test compounds were dissolved in DMSO stock to 1 mM. An aliquot of the DMSO stock solution was removed and diluted in the SGF Media in 15 mL falcon tubes to generate a total compound concentration of 1 μM. A 1 mL aliquot was immediately removed and diluted once with 1 volume of acetonitrile for T0 timepoint. The mixture was sealed and mixed at 37° C. in an incubator. Aliquots (1 mL) were removed at regular intervals and immediately quenched by the addition of 1 volume of acetonitrile. The resulting samples were analyzed by LC/MS to determine degradation rates in SGF.
# [5] = tested on: E. coli CFT073 ATCC 700928 and/or E. coli Nissle 1917; assay: Cell-based assay with ClbP with LCMS, ClbP positive strain; details: ClbP-encoding E. coli, 10 μM compound, 37° C., 20 h
# Procedure: as §1, §2, §3, §4, §5, §6, §7
SMILES,Assay 2 (SIF) (% @ Remaining 4 hours) [1],% Remaining in ClbP Negative Relative to Media-Only [2],Assay 3 (% Remaining at 24 h) [3],Assay 1 (SGF) (% Remaining @ 1 hours) [4],% Remaining in ClbP Positve Relative to Media-Only [5],Selective delivery to the colon (conclusion from Table 2) [3]
"COC(=O)[C@H](C)NC(=O)[C@@H](CC(N)=O)NC(=O)C(C)c1ccc(CC(C)C)cc1 (stereo partly drawn) [Example 17, Methyl (2-(4-isobutylphenyl)propanoyl)-D-asparaginyl-L-alaninate]",A (<25% of the tested compound remaining),+ (between 25-75% compound remaining in the 20 μM WT ClbP reaction relative to the no-enzyme control),C (>75% of the tested compound remaining),C (>75% of the tested compound remaining),+ (between 25-75% compound remaining in the 20 μM WT ClbP reaction relative to the no-enzyme control),–
"CCCCCCCCCCCCCC(=O)N[C@H](CC(N)=O)C(=O)N[C@H](C(=O)OC)C(C)C [Example 3, Methyl tetradecanoyl-D-asparaginyl-L-valinate] (Myristoyl-[dN]-Val-OMe)",C (>75% of the tested compound remaining),+ (between 25-75% compound remaining in the 20 μM WT ClbP reaction relative to the no-enzyme control),B (25-75% of the tested compound remaining),C (>75% of the tested compound remaining),+ (between 25-75% compound remaining in the 20 μM WT ClbP reaction relative to the no-enzyme control),–
"CCCCCCCC(=O)N[C@H](CC(N)=O)C(=O)NCCCC(=O)Oc1ccc2c(C)cc(=O)oc2c1 [Example 67, 4-methyl-2-oxo-2H-chromen-7-yl (R)-4-(4-amino-2-octanamido-4-oxobutanamido)butanoate]",A (<25% of the tested compound remaining),–,–,C (>75% of the tested compound remaining),–,–
"CCCCCCCC(=O)N[C@H](CC(N)=O)C(=O)N[C@@H](C)CCC(=O)Oc1ccc(Br)cc1 [Example 47, 4-bromophenyl (S)-4-((R)-4-amino-2-octanamido-4-oxobutanamido)pentanoate]",A (<25% of the tested compound remaining),− (>75% compound remaining in the 20 μM WT ClbP reaction relative to the no-enzyme control),A (<25% of the tested compound remaining),C (>75% of the tested compound remaining),− (>75% compound remaining in the 20 μM WT ClbP reaction relative to the no-enzyme control),–
"CCCCCCCC(=O)N[C@H](CC(N)=O)C(=O)NCCNC(=O)Oc1ccc2c(C)cc(=O)oc2c1 [Example 69, 4-methyl-2-oxo-2H-chromen-7-yl (R)-(2-(4-amino-2-octanamido-4-oxobutanamido)ethyl)carbamate]",A (<25% of the tested compound remaining),–,A (<25% of the tested compound remaining),C (>75% of the tested compound remaining),–,–
"COC(=O)[C@H](C)NC(=O)[C@@H](CC(N)=O)NC(=O)Cc1ccccc1 [Example 14, Methyl (2-phenylacetyl)-D-asparaginyl-L-alaninate] (PhAc-[dN]-Ala-OMe)",A (<25% of the tested compound remaining),− (>75% compound remaining in the 20 μM WT ClbP reaction relative to the no-enzyme control),C (>75% of the tested compound remaining),C (>75% of the tested compound remaining),+ (between 25-75% compound remaining in the 20 μM WT ClbP reaction relative to the no-enzyme control),–
"CCCCCCCCCCCCCC(=O)N[C@H](CC(N)=O)C(=O)N[C@@H](C)CCC(=O)Oc1ccccc1 [Example 66, phenyl (S)-4-((R)-4-amino-4-oxo-2-tetradecanamidobutanamido)pentanoate]",B (25-75% of the tested compound remaining),++ (<25% compound remaining in the 20 μM WT ClbP reaction relative to the control),A (<25% of the tested compound remaining),C (>75% of the tested compound remaining),+ (between 25-75% compound remaining in the 20 μM WT ClbP reaction relative to the no-enzyme control),can be selectively delivered to the colon
"CCCCCCCC(=O)N[C@H](CC(N)=O)C(=O)NCCNC(=O)n1cc(F)c(=O)[nH]c1=O [Example 55, (R)—N1-(2-(5-fluoro-2,4-dioxo-1,2,3,4-tetrahydropyrimidine-1-carboxamido)ethyl)-2-octanamidosuccinamide]",A (<25% of the tested compound remaining),–,A (<25% of the tested compound remaining),C (>75% of the tested compound remaining),–,–
"CCCC(=O)N[C@H](CC(N)=O)C(=O)N[C@@H](C)C(=O)OC [Example 12, Methyl butyryl-D-asparaginyl-L-alaninate] (Butyryl-[dN]-Ala-OMe)",C (>75% of the tested compound remaining),+ (between 25-75% compound remaining in the 20 μM WT ClbP reaction relative to the no-enzyme control),A (<25% of the tested compound remaining),–,–,can be selectively delivered to the colon
